From ChEMBL document CHEMBL3046606, “Synthesis and antifungal activity of novel sulfone derivatives containing 1,3,4-oxadiazole moieties” (Molecules, 2011) come the findings set out here.

For this test, the system named is Cytospora. Kind of test: Antifungal activity against Cytospora mandshurica at 50 ug/ml after 5 days by poison plate technique. The format is functional. The conditions noted are these: 120 h.

The inhibition is the relative decrease from the control value, in per cent. `Cc1ccccc1-c1nnc(S(C)(=O)=O)o1` registered an inhibition at 50 µg/mL of 99.3%.
The compound `COc1ccccc1-c1nnc(S(C)(=O)=O)o1` returned an inhibition at 50 µg/mL of 91.3%.
